Drawing on patent US9546164B2 (GENENTECH, INC., priority 2013, dated 2017), this text covers IC50 for 30 compounds.

Counter-ions that a name gives are not always drawn.

The target of one assay is hNav1.7 (Homo sapiens (Human), UniProt Q15858). Kind of assay: Tritiated sulfonamide competitive binding to membranes from cells expressing hNav1.7 and the β1 subunit.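 Also: Filter-bound radioactivity counted by liquid scintillation, nonspecific binding defined with excess unlabelled ligand, IC50 fitted to percent inhibition of specific binding.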
Sequence of hNav1.7 (Q15858 other isoform, or with tags, fused parts or gaps): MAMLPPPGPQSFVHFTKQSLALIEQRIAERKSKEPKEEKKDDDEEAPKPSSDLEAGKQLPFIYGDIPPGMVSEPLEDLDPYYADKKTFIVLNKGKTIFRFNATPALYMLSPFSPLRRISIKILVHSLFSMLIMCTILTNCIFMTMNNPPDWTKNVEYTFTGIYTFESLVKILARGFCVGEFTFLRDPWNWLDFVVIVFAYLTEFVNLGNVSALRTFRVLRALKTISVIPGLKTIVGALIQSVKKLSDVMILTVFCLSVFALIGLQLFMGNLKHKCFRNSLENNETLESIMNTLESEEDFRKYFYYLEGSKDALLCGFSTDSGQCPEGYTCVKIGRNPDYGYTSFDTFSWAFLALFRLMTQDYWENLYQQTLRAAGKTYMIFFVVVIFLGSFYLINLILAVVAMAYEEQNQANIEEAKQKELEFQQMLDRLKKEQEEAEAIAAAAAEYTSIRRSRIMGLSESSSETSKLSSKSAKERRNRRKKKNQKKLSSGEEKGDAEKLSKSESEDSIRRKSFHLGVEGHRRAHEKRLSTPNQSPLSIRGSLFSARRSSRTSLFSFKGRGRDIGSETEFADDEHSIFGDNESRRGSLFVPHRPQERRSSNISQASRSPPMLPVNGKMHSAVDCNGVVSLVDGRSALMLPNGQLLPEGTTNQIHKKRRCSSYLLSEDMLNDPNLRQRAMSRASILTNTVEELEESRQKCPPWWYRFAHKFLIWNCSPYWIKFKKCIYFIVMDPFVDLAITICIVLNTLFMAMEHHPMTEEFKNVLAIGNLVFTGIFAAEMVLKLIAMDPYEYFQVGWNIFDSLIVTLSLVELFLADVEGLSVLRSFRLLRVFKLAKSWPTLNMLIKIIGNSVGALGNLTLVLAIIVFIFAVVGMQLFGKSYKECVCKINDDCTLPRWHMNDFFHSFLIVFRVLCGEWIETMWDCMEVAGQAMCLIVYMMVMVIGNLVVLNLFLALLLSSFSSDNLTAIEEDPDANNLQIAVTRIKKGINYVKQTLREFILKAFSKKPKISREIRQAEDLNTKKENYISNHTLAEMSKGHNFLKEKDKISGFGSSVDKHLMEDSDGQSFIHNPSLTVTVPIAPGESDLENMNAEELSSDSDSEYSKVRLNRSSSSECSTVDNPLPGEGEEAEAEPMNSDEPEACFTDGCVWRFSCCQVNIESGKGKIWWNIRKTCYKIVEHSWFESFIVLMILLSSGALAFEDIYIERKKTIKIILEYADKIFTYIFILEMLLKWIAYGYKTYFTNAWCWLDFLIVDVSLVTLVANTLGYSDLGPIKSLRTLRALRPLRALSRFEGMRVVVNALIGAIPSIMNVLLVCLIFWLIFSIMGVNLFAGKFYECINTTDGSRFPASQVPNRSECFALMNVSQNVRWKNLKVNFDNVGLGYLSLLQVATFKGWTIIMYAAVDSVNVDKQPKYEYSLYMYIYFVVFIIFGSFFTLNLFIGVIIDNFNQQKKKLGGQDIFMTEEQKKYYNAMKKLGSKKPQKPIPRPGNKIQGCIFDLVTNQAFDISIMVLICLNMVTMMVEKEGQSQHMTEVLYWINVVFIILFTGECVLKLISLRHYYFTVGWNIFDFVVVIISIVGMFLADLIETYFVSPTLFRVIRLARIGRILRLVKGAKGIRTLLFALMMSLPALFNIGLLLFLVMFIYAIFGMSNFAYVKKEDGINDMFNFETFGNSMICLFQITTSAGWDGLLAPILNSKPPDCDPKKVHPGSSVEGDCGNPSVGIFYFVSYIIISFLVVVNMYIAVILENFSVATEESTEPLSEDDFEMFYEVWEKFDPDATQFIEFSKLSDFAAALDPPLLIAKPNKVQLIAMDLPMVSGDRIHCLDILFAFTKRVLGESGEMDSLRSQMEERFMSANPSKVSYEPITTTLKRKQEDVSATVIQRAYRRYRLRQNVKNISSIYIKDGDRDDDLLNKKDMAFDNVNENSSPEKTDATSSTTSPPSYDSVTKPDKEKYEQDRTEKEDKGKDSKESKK
Sequence of hNav1.7 (Q07699 19-218 partner): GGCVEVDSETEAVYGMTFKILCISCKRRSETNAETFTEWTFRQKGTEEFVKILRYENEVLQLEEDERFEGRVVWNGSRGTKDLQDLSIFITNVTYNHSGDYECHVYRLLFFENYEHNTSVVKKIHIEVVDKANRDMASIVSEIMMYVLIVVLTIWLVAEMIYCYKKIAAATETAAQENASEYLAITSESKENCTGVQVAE
Settings: not given
As for `CS(=O)(=O)NC(=O)c1cc(C2CC2)c(CN2CCC(Oc3ccc(Cl)c(Cl)c3)CC2)cc1F` [Example 509, 5-cyclopropyl-4-((4-(3,4-dichlorophenoxy)piperidin-1-yl)methyl)-2-fluoro-N-(methylsulfonyl)benzamide, trifluoroacetic acid salt)], the IC50 came out at 13.1 nM.

`O=C(NS(=O)(=O)C1CC1)c1cc(C2CC2)c(CN2CCC(Oc3cc(C(F)(F)F)cc(Cl)c3F)CC2)cc1F` [Example 537, 4-((4-(3-chloro-2-fluoro-5-(trifluoromethyl)phenoxy)piperidin-1-yl)methyl)-5-cyclopropyl-N-(cyclopropylsulfonyl)-2-fluorobenzamide, trifluoroacetic acid salt] yielded an IC50 of 5.7 nM.

Turning to `O=C(NS(=O)(=O)C1CC1)c1cc(C2CC2)c(CN2CCN(S(=O)(=O)c3cc(Cl)cc(Cl)c3)CC2)cc1F` [Example 527, 5-cyclopropyl-N-(cyclopropylsulfonyl)-4-((4-((3,5-dichlorophenyl)sulfonyl)piperazin-1-yl)methyl)-2-fluorobenzamide, trifluoroacetic acid salt], the IC50 was 9.9 nM.

In turn, `C[C@H](c1cc(Cl)cc(Cl)c1)N1CCN(Cc2cc(F)c(C(=O)NS(C)(=O)=O)cc2C2CC2)C[C@@H]1C` [Example 565, 5-cyclopropyl-4-(((S)-4-((R)-1-(3,5-dichlorophenyl)ethyl)-3-methylpiperazin-1-yl)methyl)-2-fluoro-N-(methylsulfonyl)benzamide] gave an IC50 of 4.1 nM.

`O=C(NS(=O)(=O)N1CCC1)c1cc(C2CC2)c(O[C@@H]2CCCN(Cc3ccc(Cl)cc3Cl)C2)cc1F` [Example 30, (R)—N-(azetidin-1-ylsulfonyl)-5-cyclopropyl-4-((1-(2,4-dichlorobenzyl)piperidin-3-yl)oxy)-2-fluorobenzamide] yielded an IC50 of 2.7 nM.

Staying with this assay, now noted: read-out: Ligand Binding Assay; 100 pM [3H]compound, membranes with hNav1.7 and β1 subunit, 18 h, room temperature.
Consider `CCS(=O)(=O)NC(=O)c1cc(C2CC2)c(OCC2CCN([C@@H](C)c3ccc(F)cc3Cl)CC2)cc1F` (single isomer, unassigned) [Example 245], for which the IC50 was found to be 7.9 nM.

On to `CC(C)Oc1ncc(CN2CC(COc3cc(F)c(C(=O)NS(C)(=O)=O)cc3C3CC3)C2)cc1Cl` [Example 83, 4-((1-((5-Chloro-6-isopropoxypyridin-3-yl)methyl)azetidin-3-yl)methoxy)-5-cyclopropyl-2-fluoro-N-(methylsulfonyl)benzamide], for which the IC50 stood at 59 nM.

Regarding `CS(=O)(=O)NC(=O)c1cc(C2CC2)c(OCC2CCN(Cc3cc(F)c(Br)cc3F)CC2)cc1F` [Example 588, 4-((1-(4-bromo-2,5-difluorobenzyl)piperidin-4-yl)methoxy)-5-cyclopropyl-2-fluoro-N-(methylsulfonyl)benzamide], the IC50 turned out to be 6.9 nM.

For the compound `CS(=O)(=O)NC(=O)c1cc(C2CC2)c(OCC2CN([C@@H](c3ccccc3)c3ccc(S(C)(=O)=O)cc3)C2)cc1F` [Example 95, (S)-5-Cyclopropyl-2-fluoro-N-(methylsulfonyl)-4-((1-((4-(methylsulfonyl)phenyl)(phenyl)methyl)azetidin-3-yl)methoxy)benzamide], the IC50 was found to be 1060 nM.

Take `C[C@@H](c1ccc(Cl)cc1Cl)N1CCC(COc2cc(F)c(C(=O)NS(C)(=O)=O)cc2C2CC2)CC1` [Example 238, (S)-5-cyclopropyl-4-((1-(1-(2,4-dichlorophenyl)ethyl)piperidin-4-yl)methoxy)-2-fluoro-N-(methylsulfonyl)benzamide]: the IC50 amounted to 2.2 nM.

Regarding `O=C(NS(=O)(=O)C1CC1)c1cc(C2CC2)c(OCC2CCN(C(=O)c3cccc(Cl)c3)CC2)cc1F` [Example 196, 4-((1-(3-Chlorobenzoyl)piperidin-4-yl)methoxy)-5-cyclopropyl-N-(cyclopropylsulfonyl)-2-fluorobenzamide], the IC50 was found to be 43 nM.

Consider `CS(=O)(=O)NC(=O)c1cc(C2CC2)c(CN2CCC(OCc3ccc(F)cc3Cl)CC2)cc1F` [Example 478, 4-((4-((2-chloro-4-fluorobenzyl)oxy)piperidin-1-yl)methyl)-5-cyclopropyl-2-fluoro-N-(methylsulfonyl)benzamide, trifluoroacetic acid salt], for which the IC50 stood at 38.1 nM.

Take `CS(=O)(=O)NC(=O)c1cc(C2CC2)c(OCC2CN([C@@H](c3ccccc3)c3cc(Cl)cc(Cl)c3)C2)cc1F` [Example 142, (S)-5-Cyclopropyl-4-((1-((3,5-dichlorophenyl)(phenyl)methyl)azetidin-3-yl)methoxy)-2-fluoro-N-(methylsulfonyl)benzamide]: the IC50 came out at 6.57 nM.

Turning to `CS(=O)(=O)NC(=O)c1cc(C2CC2)c(OCC2CN(Cc3ccc(C(F)(F)F)c(F)c3)C2)cc1F` [Example 76, 5-cyclopropyl-2-fluoro-4-((1-(3-fluoro-4-(trifluoromethyl)benzyl)azetidin-3-yl)methoxy)-N-(methylsulfonyl)benzamide], the IC50 stood at 42 nM.

In the case of `CS(=O)(=O)NC(=O)c1cc(C2CC2)c(OCC2CCN(S(=O)(=O)c3ccc(C(F)(F)F)cc3)CC2)cc1F` [Example 372, 5-cyclopropyl-2-fluoro-N-(methylsulfonyl)-4-((1-((4-(trifluoromethyl)phenyl)sulfonyl)piperidin-4-yl)methoxy)benzamide], the IC50 turned out to be 49.2 nM.

For the compound `COc1ccc(CN2CCC[C@@H](Oc3cc(F)c(C(=O)NS(C)(=O)=O)cc3C3CC3)C2)c(Cl)c1` [Example 432, (R)-4-((1-(2-chloro-4-methoxybenzyl)piperidin-3-yl)oxy)-5-cyclopropyl-2-fluoro-N-(methylsulfonyl)benzamide, trifluoroacetic acid salt], the IC50 was determined as 3.3 nM.

On to `CC(c1cc(Cl)cc(Cl)c1)N1CCN(Cc2cc(F)c(C(=O)NS(C)(=O)=O)cc2C2CC2)CC1` (stereo not drawn) [Example 540], for which the IC50 is 7.8 nM.

As for `CS(=O)(=O)NC(=O)c1cc(C2CC2)c(OCC2CCN(Cc3ccc(F)c(F)c3)CC2)cc1F` [Example 160, 5-Cyclopropyl-4-((1-(3,4-difluorobenzyl)piperidin-4-yl)methoxy)-2-fluoro-N-(methylsulfonyl)benzamide], the IC50 turned out to be 62.8 nM.

As for `CCS(=O)(=O)NC(=O)c1cc(C2CC2)c(OCC2CCN(Cc3cc(Cl)cc(C(F)(F)F)c3)CC2)cc1F` [Example 216, 4-((1-(3-Chloro-5-(trifluoromethyl)benzyl)piperidin-4-yl)methoxy)-5-cyclopropyl-N-(ethylsulfonyl)-2-fluorobenzamide], the IC50 turned out to be 5 nM.

`O=C(NS(=O)(=O)CC1CC1)c1cc(C2CC2)c(OCC2CN(C(c3ccccc3)c3ccccc3)C2)cc1F` [Example 64, 4-((1-benzhydrylazetidin-3-yl)methoxy)-5-cyclopropyl-N-((cyclopropylmethyl)-sulfonyl)-2-fluorobenzamide]: the IC50 amounted to 4.7 nM.

Consider `CC1(COc2cc(F)c(C(=O)NS(=O)(=O)C3CC3)cc2C2CC2)CN(c2ccc(Cl)c(C(F)(F)F)n2)C1` [Example 485, 4-((1-(5-chloro-6-(trifluoromethyl)pyridin-2-yl)-3-methylazetidin-3-yl)methoxy)-5-cyclopropyl-N-(cyclopropylsulfonyl)-2-fluorobenzamide], for which the IC50 stood at 4.5 nM.

On to `O=C(NS(=O)(=O)C1CC1)c1cc(C2CC2)c(OCC2CCN(S(=O)(=O)C3CCOCC3)CC2)cc1F` [Example 377, 5-cyclopropyl-N-(cyclopropylsulfonyl)-2-fluoro-4-((1-((tetrahydro-2H-pyran-4-yl)sulfonyl)piperidin-4-yl)methoxy)benzamide], for which the IC50 was 1260 nM.

For `CS(=O)(=O)NC(=O)c1cc(C2CC2)c(OCC2CCN(Cc3cc(F)c(F)c(Cl)c3)CC2)cc1F` [Example 456, 4-((1-(3-chloro-4,5-difluorobenzyl)piperidin-4-yl)methoxy)-5-cyclopropyl-2-fluoro-N-(methylsulfonyl)benzamide, trifluoroacetic acid salt], the IC50 turned out to be 9.3 nM.

Regarding `COC(C)(C)[C@@H](c1cc(Cl)cc(Cl)c1)N1CCC(COc2cc(F)c(C(=O)NS(C)(=O)=O)cc2C2CC2)CC1` (single isomer, unassigned) [Example 205], the IC50 was 2.5 nM.

In the case of `CC1(COc2cc(F)c(C(=O)NS(=O)(=O)C3CC3)cc2C2CC2)CN(c2ccncc2C(F)(F)F)C1` [Example 489, 5-cyclopropyl-N-(cyclopropylsulfonyl)-2-fluoro-4-((3-methyl-1-(3-(trifluoromethyl)pyridin-4-yl)azetidin-3-yl)methoxy)benzamide, trifluoroacetic acid salt], the IC50 came out at 103 nM.

For the compound `CS(=O)(=O)NC(=O)c1cc(Cl)c(OCC2CCN(Cc3cc(Cl)cc(OC(F)(F)F)c3)CC2)cc1F` [Example 406, 5-chloro-4-((1-(3-chloro-5-(trifluoromethoxy)benzyl)piperidin-4-yl)methoxy)-2-fluoro-N-(methylsulfonyl)benzamide, trifluoroacetic acid salt], the IC50 is 17.6 nM.

`CS(=O)(=O)NC(=O)c1cc(C2CC2)c(OCC2(C#N)CCN(Cc3cc(C(F)(F)F)cc(Cl)c3F)CC2)cc1F` [Example 595, 4-((1-(3-chloro-2-fluoro-5-(trifluoromethyl)benzyl)-4-cyanopiperidin-4-yl)methoxy)-5-cyclopropyl-2-fluoro-N-(methylsulfonyl)benzamide]: the IC50 was 34.3 nM.

`CS(=O)(=O)NC(=O)c1cc(C2CC2)c(OCC2CCN(S(=O)(=O)c3ccc(OC(F)(F)F)cc3)CC2)cc1F` [Example 378, 5-cyclopropyl-2-fluoro-N-(methylsulfonyl)-4-((1-((4-(trifluoromethoxy)phenyl)sulfonyl)piperidin-4-yl)methoxy)benzamide]: the IC50 stood at 45.9 nM.

With `O=C(NS(=O)(=O)C1CC1)c1cc(C2CC2)c(CN2CCO[C@@H](Cc3ccc(Cl)c(Cl)c3)C2)cc1F` [Example 462], the IC50 came to 36.3 nM.

As to `C[C@H](c1ccc(Cl)cc1Cl)N1CCC(C)(COc2cc(F)c(C(=O)NS(C)(=O)=O)cc2C2CC2)CC1` [Example 281, (R)-5-cyclopropyl-4-((1-(1-(2,4-dichlorophenyl)ethyl)-4-methylpiperidin-4-yl)methoxy)-2-fluoro-N-(methylsulfonyl)benzamide], the IC50 came out at 4.7 nM.
